# Assay results reported in US20230263817A1, “HIGH DOSE NICOTINAMIDE ADENINE DINUCLEOTIDE (NAD) PRECURSOR REGIMENS FOR REDUCTION OF INFLAMMATION IN HUMAN PATIENTS WITH PREEXISTING INFLAMMATION” (University of Washington, priority 2021, published 2023).
# Tests used:
# [1] = system: PBMCs of heart failure patients; experiment: Seahorse OCR of HF PBMCs after 4-hour in vitro NR treatment; format: cell-based, human; conditions: HF PBMC, 4-hour 1 mM NR vs vehicle
# Protocol: PBMC and Monocyte isolation. 30-60 ml of fasting blood was collected into EDTA-containing Vacutainers (BD Mfr #364606). Blood then was diluted (1:1) with RPMI medium (Corning; Cat #17-105-CV) and applied to Histopaque gradient medium (Sigma-Aldrich; Cat #10771) using SepMate-50 (STEMCELL Technologies), and centrifuged at 1200 g for 10 minutes. Top layer contained the enriched peripheral blood mononuclear cells (PBMCs) which were collected and followed by centrifugation at 300 g for 10 minutes. The pellet was resuspended with ACK lysis buffer (Gibco; Cat. A1049201) and incubated at room temperature for 5 minutes to remove residual red blood cells. Next, the enriched PBMCs were washed twice with RPMI medium. All PBMC samples were subjected to the baseline Seahorse Mito Stress Test. When available, the remaining cells were used for cytokine mRNA quantitative PCR and in vitro assays. For monocyte isolation, a magnetic bead-based negative-selection monocyte isolation kit (Miltenyi Biotec, 130-096-537) was used per the manufacturer's instructions. […]
# Seahorse Mito Stress Test. Oxygen consumption rate (OCR) of freshly isolated PBMCs was assessed using a Seahorse XFe24 analyzer (Agilent Technologies). […]
# [2] = system: PBMC of Stage D HF subjects; experiment: PBMC basal and maximal OCR of Stage D HF patients pre- and post-oral NR; format: in vivo, human; conditions: oral NR 5-9 days, post vs pre
# Protocol: For experiments associated with the oral NR administration (FIGS. 12C-12F), 5 hospitalized Stage D HF patients undergoing advanced heart failure therapy evaluations were put on escalating doses of NR (250 mg twice a day for Day 1, 500 mg twice a day for Day 2, and 1000 mg twice a day from Day 3 on) for 5-9 days. Fasting blood samples were obtained for PBMC isolation at baseline and post-NR administration. Subject 5 was withdrawn due to a change in clinical course deemed to be independent from NR administration. PBMC and Monocyte isolation. 30-60 ml of fasting blood was collected into EDTA-containing Vacutainers (BD Mfr #364606). Blood then was diluted (1:1) with RPMI medium (Corning; Cat #17-105-CV) and applied to Histopaque gradient medium (Sigma-Aldrich; Cat #10771) using SepMate-50 (STEMCELL Technologies), and centrifuged at 1200 g for 10 minutes. Top layer contained the enriched peripheral blood mononuclear cells (PBMCs) which were collected and followed by centrifugation at 300 g for 10 minutes. The pellet was resuspended with ACK lysis buffer (Gibco; Cat. A1049201) and incubated at room temperature for 5 minutes to remove residual red blood cells. […] When available, the remaining cells were used for cytokine mRNA quantitative PCR and in vitro assays. […] Oxygen consumption rate (OCR) of freshly isolated PBMCs was assessed using a Seahorse XFe24 analyzer (Agilent Technologies). […]
# [3] = Adverse effects of oral NR in Stage D HF patients; format: in vivo, human; conditions: oral NR 5-9 days, 5 participants
# Protocol: For experiments associated with the oral NR administration (FIGS. 12C-12F), 5 hospitalized Stage D HF patients undergoing advanced heart failure therapy evaluations were put on escalating doses of NR (250 mg twice a day for Day 1, 500 mg twice a day for Day 2, and 1000 mg twice a day from Day 3 on) for 5-9 days. Fasting blood samples were obtained for PBMC isolation at baseline and post-NR administration. Subject 5 was withdrawn due to a change in clinical course deemed to be independent from NR administration.
compound,measurement,setting,value
"NC(=O)c1ccc[n+]([C@@H]2O[C@H](CO)[C@@H](O)[C@H]2O)c1 [NR, nicotinamide riboside]",basal OCR,[1],increased
same,maximal OCR,[1],increased
same,PBMCs basal OCR,[2],consistent enhancement
same,PBMCs maximal OCR,[2],consistent enhancement
same,adverse effect associated with NR,[3],No adverse effect
